Measured values: US12502383B2, “Pharmaceutical composition of cyclooxygenase-2 inhibitors” (THEMIS MEDICARE LIMITED, priority 2019, dated 2025)
Read-outs that look alike come from different tables or passages of the source.

Key:
[1] = system: rabbit; settings: intravenous: rabbit; cited from earlier work
[2] = system: Dog; settings: intravenous: Dog; cited from earlier work
[3] = system: mouse; settings: cited from earlier work
[4] = cited from earlier work
[5] = cited from earlier work; remark: listed apart in the source
[6] = Solubilization of Etoricoxib in solubilizers; format: physicochemical
Procedure: The ratio of active to solubilizers between 1:35 to 1:135.71 gives good solubilization of coxib. Satisfactory compositions can be produced wherein ration of active to solubilizer is between 1:35 to 1:58.33. Etoricoxib 1.4 mg ie 0.14% w/v can be solubilized in Twin 80, 8% w/v and Transcutol 3% w/v. It can also be solubilized in Ethanol and Tween 8% w/v each and Transcutol 3% w/v. One can consider it as 3 solubilizers or 2 solubilizers and one solvent.

[7] = after oral and intravenous administration; cited from earlier work
[8] = in vivo; cited from earlier work

| Etoricoxib solubilized ([6]; in Ethanol and Tween 8% w/v each and Transcutol 3% w/v) | Etoricoxib solubilized ([6]; in Twin 80, 8% w/v and Transcutol 3% w/v) [mg] | Structure (SMILES) | LD50 [1] [µL/kg] | LD50 [2] [mL/kg] | LD50 ([3]; intravenous: mouse) [µL/kg] | LD50 ([3]; subcutaneous: mouse) [µL/kg] | protein binding [4] | Solubility in 2-propanol [5] | Solubility in isopropyl acetate, ethanol and toluene [5] | Solubility in methanol, tetrahydrofuran, dimethyl sulfoxide, methyl ethyl ketone, dimethyl formamide, and chloroform [5] | Solubility in water [5] | Bioavailability [7] [%] | drug eliminated unchanged [8] [%] | Solubility in anhydrous ethanol [5] | Solubility in methylene chloride [5] | solubility in DMF [5] | solubility in DMSO [5] | solubility in ethanol [5] |
| --- | --- | --- | --- | --- | --- | --- | --- | --- | --- | --- | --- | --- | --- | --- | --- | --- | --- | --- |
|  |  | CCOCCOCCO [Transcutol, Diethylene Glycol Monoethyl Ether] | 2500 | 3 | 4300 | 5500 |  |  |  |  |  |  |  |  |  |  |  |  |
| solubilized | 1.4 | Cc1ccc(-c2ncc(Cl)cc2-c2ccc(S(C)(=O)=O)cc2)cn1 [Etoricoxib] |  |  |  |  | about 92% | sparingly soluble | soluble | freely soluble | practically insoluble | 100 |  |  |  |  |  |  |
|  |  | Cc1ccc(-c2cc(C(F)(F)F)nn2-c2ccc(S(N)(=O)=O)cc2)cc1 [Celecoxib, 4-[5-(4-methylphenyl)-3-(trifluoromethyl)pyrazol-1-yl]benzenesulfonamide] |  |  |  |  |  |  |  |  | practically insoluble |  | < 3 | freely soluble to soluble | soluble | approximately 25 mg/ml | approximately 16.6 mg/ml | approximately 25 mg/ml |
